Reference: publication PMC10216731 (2023)

Columns and labels:
[1] = system: aptamer for AMP (Apt) (DNA, aptamer) GCGGGCGGTTGTATAGCGG; assay: fluorescence recovery by release of TPE-Am; conditions: 99% PBS (PBS:DMSO), pH 7.4, 25 °C, aptamer 500 nM
[2] = system: aptamer for AMP (Apt) (DNA, aptamer) GCGGGCGGTTGTATAGCGG; assay: fluorescence quenching of TPE-Am, lg[(F0-F)/F] against lg[Q] plot; conditions: Na+, K+ from 10 mM PBS (Na2HPO4, KH2PO4, NaCl, KCl); individual cation concentrations not given; 305 K; PBS:DMSO 99% PBS; TPE-Am aggregated; also measured at 287 and 318 K; apparent
[3] = TPE-Am displacement, highest tested 100 nM

CC1(C)S[C@@H]2[C@H](NC(=O)[C@H](N)c3ccccc3)C(=O)N2[C@H]1C(=O)O
binding ([1]; TPE-Am 1 μM displaced, 10 nM AMP): yes

CN(C)[C@@H]1C(=O)C(C(N)=O)=C(O)[C@@]2(O)C(=O)C3=C(O)c4c(O)cccc4[C@@](C)(O)[C@H]3C[C@@H]12
binding [1, 3]: no

O=[N+]([O-])N=C1NCCN1Cc1ccc(Cl)nc1
binding [1, 3]: no

Nc1ccc(C(=C(c2ccccc2)c2ccccc2)c2ccccc2)cc1
Kb [2]: 626000 L/mol

O=C(N[C@H](CO)[C@H](O)c1ccc([N+](=O)[O-])cc1)C(Cl)Cl
binding [1, 3]: no

CC[C@H]1OC(=O)[C@H](C)[C@@H](O[C@H]2C[C@@](C)(OC)[C@@H](O)[C@H](C)O2)[C@H](C)[C@@H](O[C@@H]2O[C@H](C)C[C@H](N(C)C)[C@H]2O)[C@](C)(O)C[C@@H](C)/C(=N\OCOCCOC)[C@H](C)[C@@H](O)[C@]1(C)O
binding [1, 3]: no
